Patent US20250109139A1, “TRICYCLIC COMPOUND, AND PREPARATION METHOD THEREFOR AND USE THEREOF” (SHANGHAITECH UNIVERSITY, priority 2022, published 2025)
Read-outs that look alike come from different tables or passages of the source.

What was measured:
dopamine D2 receptors [1] = target: T1, dopamine D2 receptors (Homo sapiens (Human), UniProt P14416); experiment: Dopamine D2 receptor Gαi1 BRET (G protein trimer dissociation); assay type: cell-based; details: for Emax: relative to endogenous ligand dopamine, read-out: Gαi1 BRET Emax % ± SEM
Method: (§1) To examine the downstream G-protein signaling pathway mediated by dopamine D2 receptors, on the first day, a 6 cm culture dish was used for transfection with 1 μg of dopamine D2 receptors, 1 μg of Gαi1 containing C-terminal seaweed luciferase (Gαi1-Rluc), 1 μg of Gβ3, 1 μg of Gγ9 containing C-terminal green fluorescent protein (Gγ9-GFP) mixed with 16 μL of PEI. At the same time, in order to examine the downstream β-arrestin2 signaling pathway mediated by dopamine D2 receptors, on the first day, a 6 cm culture dish was used for transfection with […] of dopamine D2 receptors containing C-terminal seaweed luciferase (D2-Rluc), […] of G protein-coupled receptor kinase 2 (GRK2), […] of β-arrestin2 containing N-terminal green fluorescent protein (GFP2-ARRB2) mixed with 14 μL of PEI. The next day, the confluent cells of a 6 cm culture dish were digested and reseeded into a 96-well plate with 100 μL of culture medium added to each well. On the third day, the drugs were added for test. The 96-well plate was taken out from the cell incubator to decant the culture medium, 40 μL of the substrate coelenterazine 400a (final concentration of 5 μM) was added to each well, and then 20 μL of different drugs were added sequentially from left to right to ensure that the final concentration of the drug decreased gradually from bottom to top, with two replicates per treatment. Finally, the prepared samples were loaded on machine for test. The machine readout value reflected the recruitment of β-arrestin2 to the membrane or the dissociation of G protein trimer. The former indicated the degree of activation of the β-arrestin2 signaling pathway downstream of the dopamine D2 receptors, and the latter indicated the degree of activation of the G protein signaling pathway downstream of the dopamine D2 receptors.

dopamine D2 receptors [2] = target: T1, dopamine D2 receptors; experiment: Dopamine D2 receptor β-arrestin2 BRET (recruitment); assay type: cell-based; details: for Emax: relative to endogenous ligand dopamine, read-out: β-arrestin2 BRET Emax % ± SEM
Method: as §1

dopamine D2 receptors [3] = target: T1, dopamine D2 receptors; experiment: Dopamine D2 receptor radioligand competition binding assay ([3H]-Methylspiperone); details: [3H]-Methylspiperone 0.3 to 0.5 nM, 293T membranes
Method: The affinity of the compounds of the present disclosure for dopamine D2 receptors was determined by a radioligand competition binding assay.
In the first step, a cell membrane component containing specific dopamine D2 receptors was prepared. A 10 cm culture dish was used for transfection with […] of dopamine D2 receptors and 40 μL of polyethylenimine (PEI hereafter). […] A vacuum pump was used to suck off the culture medium, 3 mL of lysis buffer was added to each culture dish, and the cells were placed in a 4° C. cold room for 10 minutes. After the cells were detached, the cells were transferred to a 15 mL centrifuge tube and centrifuged at 1500 rpm for 5 minutes at 4° C., and the supernatant was discarded. The cell pellet was transferred to a tissue homogenizer, and 3 mL of lysis buffer was added and fully ground until the cells were broken. Then, cell suspension was equally aliquoted into several EP tubes, centrifuged at 12000 rpm for 5 minutes at 4° C., and the supernatant was discarded. The precipitate was the cell membrane component containing the dopamine D2 receptors.
First, a standard binding buffer was added to the cell membrane component containing the dopamine D2 receptors, and the cell membrane was disrupted and resuspended with an electric tissue homogenizer. 30 μL of membrane protein suspension was added to each well of a 96-well plate. Then, 30 μL of different drugs were added to the 96-well plate sequentially from bottom to top to ensure that the final drug concentrations were 10^−5 M, 10^−6 M, 10^−7 M, 10^−8 M, 10^−9 M, and 0 M, with two replicates per treatment. Next, 30 μL of [3H]-Methylspiperone was added to each well of the 96-well plate. The plate was incubated at room temperature in the dark for 2 hours. Detection was conducted. The machine readout value reflected the amount of [3H]-Methylspiperone bound on the membrane, and after further data processing, the affinity Ki values of different compounds for the dopamine D2 receptors were obtained.

[4] = unit printed only in Cariprazine cell, read-out: Gαi1 BRET EC50
[5] = unit printed only in Cariprazine cell, read-out: β-arrestin2 BRET EC50
[6] = read-out: Gαi1 BRET pEC50 ± SEM (converted)
[7] = read-out: Affinity pKi ± SEM (converted)

T1 sequence (P14416 whole entry): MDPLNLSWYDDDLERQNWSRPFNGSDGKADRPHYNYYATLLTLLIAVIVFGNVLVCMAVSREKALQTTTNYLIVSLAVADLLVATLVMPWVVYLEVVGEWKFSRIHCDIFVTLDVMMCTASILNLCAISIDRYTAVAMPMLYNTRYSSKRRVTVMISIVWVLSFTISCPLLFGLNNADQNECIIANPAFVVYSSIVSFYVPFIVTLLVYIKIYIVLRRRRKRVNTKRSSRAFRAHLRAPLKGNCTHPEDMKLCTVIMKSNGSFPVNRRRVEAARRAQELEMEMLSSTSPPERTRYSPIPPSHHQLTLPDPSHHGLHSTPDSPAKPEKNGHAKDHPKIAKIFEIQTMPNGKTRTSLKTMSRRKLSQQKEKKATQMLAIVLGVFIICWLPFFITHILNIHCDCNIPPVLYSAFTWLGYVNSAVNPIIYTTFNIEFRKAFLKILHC

Row | Emax (dopamine D2 receptors [1]) [%] | EC50 (dopamine D2 receptors [1]; [4]) [nM] | Emax (dopamine D2 receptors [2]) [%] | EC50 (dopamine D2 receptors [2]; [5]) [nM] | EC50 (dopamine D2 receptors [1]; [6]) [nM] | SMILES | Gαi1 BRET pEC50 ± SEM (dopamine D2 receptors [1]) | β-arrestin2 BRET pEC50 ± SEM (dopamine D2 receptors [2]) | Affinity pKi ± SEM (dopamine D2 receptors [3]) | Ki (dopamine D2 receptors [3]; read-out: Affinity Ki) [nM] | Ki (dopamine D2 receptors [3]; [7]) [nM] | EC50 (dopamine D2 receptors [2]; read-out: β-arrestin2 BRET pEC50 ± SEM (converted)) [nM]
1 | 68 | 0.15 | 103 | 52.6 |  | COc1cccc2c3c(oc12)CN(CCCOc1ccc2ccc(=O)[nH]c2c1)CC3 [I-A8, 7-(3-(8-methoxy-3,4-dihydrobenzofuro[2,3-c]pyridin-2(1H)-yl)propoxy)quinolin-2(1H)-one] |  |  | (6.82 ± 0.16) | 149 |  | 
2 |  |  |  |  |  | COc1cccc2c3c(oc12)CN(CCNC(=O)C1CCOCC1)CC3 [I-A14, N-(2-(8-methoxy-3,4-dihydrobenzofuro[2,3-c]pyridin-2(1H)-yl)ethyl)tetrahydro-2H-pyran-4-carboxamide] |  |  |  | 752 |  | 
3 | 49 | 4.37 | 29 | 6.7 | 3.67 | CCOc1cccc2c3c(oc12)CN(CC[C@H]1CC[C@H](NC(=O)N(C)C)CC1)CC3 [I-A17, 3-(trans-4-(2-(8-ethoxy-3,4-dihydrobenzofuro[2,3-c]pyridin-2(1H)-yl)ethyl)cyclohexyl)-1,1-dimethylurea] |  |  |  |  |  | 
4 |  |  |  |  |  | CCOc1cccc2c3c([nH]c12)CN(CCCCOc1ccc2ccc(=O)[nH]c2c1)CC3 [I-B2, 7-(4-(8-ethoxy-1,3,4,9-tetrahydro-2H-pyrido[3,4-b]indol-2-yl)butoxy)quinolin-2(1H)-one] |  |  |  | 78.9 | 77.6 | 
5 |  |  |  |  |  | CCOc1cccc2c3c([nH]c12)CN(CCCOc1ccc2ccc(=O)[nH]c2c1)CC3 [I-B4, 7-(3-(8-ethoxy-1,3,4,9-tetrahydro-2H-pyrido[3,4-b]indol-2-yl)propoxy)quinolin-2(1H)-one] |  |  | (6.13 ± 0.26) | 728 |  | 
6 | 35 | 43.6 | 76 | 6.53 |  | COc1cccc2c3c([nH]c12)CN(CCCOc1ccc2c(c1)NC(=O)CC2)CC3 [I-B5, 7-(3-(8-methoxy-1,3,4,9-tetrahydro-2H-pyrido[3,4-b]indol-2-yl)propoxy)-3,4-dihydroquinolin-2(1H)-one] |  |  |  |  |  | 
7 |  |  |  |  |  | CCOc1cccc2c3c([nH]c12)CN(CCCOc1ccc2c(c1)NC(=O)CC2)CC3 [I-B6, 7-(3-(8-ethoxy-1,3,4,9-tetrahydro-2H-pyrido[3,4-b]indol-2-yl)propoxy)-3,4-dihydroquinolin-2(1H)-one] |  |  | (6.58 ± 0.41) | 266 |  | 
8 | 14 | 43.3 | 51 | 133 | 61.7 | COc1cccc2c3c([nH]c12)CN(CC1(O)CCCCC1)CC3 [I-B9, 1-((8-methoxy-1,3,4,9-tetrahydro-2H-pyrido[3,4-b]indol-2-yl)methyl)cyclohexan-1-ol] |  |  |  |  |  | 
9 |  |  |  |  |  | COc1cccc2c3c([nH]c12)CN(CCC1CC(NC(=O)N(C)C)C1)CC3 (stereo not drawn) [I-B10, 3-(3-(2-(8-methoxy-1,3,4,9-tetrahydro-2H-pyrido[3,4-b]indol-2-yl)ethyl)cyclobutyl)-1,1-dimethylurea] |  |  | (7.63 ± 0.57) | 23.2 |  | 
10 | 49 | 276 | 92 | 2.45 |  | COc1cccc2c1cc1n2CCN(C/C=C/COc2ccc3c(c2)NC(=O)CC3)C1 [I-C6, (E)-7-((4-(9-methoxy-3,4-dihydropyrazino[1,2-a]indol-2(1H)-yl)but-2-en-1-yl)oxy)-3,4-dihydroquinolin-2(1H)-one] |  |  |  |  |  | 
11 | 23 | 39.8 | 45 | 128 |  | CCOc1cccc2c1cc1n2CCN(CC[C@H]2CC[C@H](NC(=O)N(C)C)CC2)C1 [I-C11, 3-(trans-4-(2-(9-ethoxy-3,4-dihydropyrazino[1,2-a]indol-2(1H)-yl)ethyl)cyclohexyl)-1,1-dimethylurea] |  |  |  |  |  | 
12 | 66 | 23.4 | 52 | 54.4 | 38.9 | COc1cccc2c1cc1n2CCN(CC2(O)CCCCC2)C1 [I-C12, 1-((9-methoxy-3,4-dihydropyrazino[1,2-a]indol-2(1H)-yl)methyl)cyclohexan-1-ol] |  |  |  |  |  | 
13 | 71 | 130 | 97 | 18.3 |  | COc1cccc2c1nc1n2CCN(CCCOc2ccc3ccc(=O)[nH]c3c2)C1 [I-D3, 7-(3-(9-methoxy-3,4-dihydrobenzo[4,5]imidazo[1,2-a]pyrazin-2(1H)-yl)propoxy)quinolin-2(1H)-one] |  |  |  |  |  | 
14 | 81 | 159 | 89 | 33.6 |  | COc1cccc2c1nc1n2CCN(CCCOc2ccc3c(c2)NC(=O)CC3)C1 [I-D4, 7-(3-(9-methoxy-3,4-dihydrobenzo[4,5]imidazo[1,2-a]pyrazin-2(1H)-yl)propoxy)-3,4-dihydroquinolin-2(1H)-one] |  |  |  |  |  | 
15 | 46 | 160 | 66 | 38.8 | 162 | COc1cccc2c1nc1n2CCN(C/C=C/COc2ccc3c(c2)NC(=O)CC3)C1 [I-D5, (E)-7-((4-(9-methoxy-3,4-dihydrobenzo[4,5]imidazo[1,2-a]pyrazin-2(1H)-yl)but-2-en-1-yl)oxy)-3,4-dihydroquinolin-2(1H)-one] |  |  |  |  |  | 
16 |  |  |  |  |  | COc1cccc2c1nc1n2CCN(CC[C@H]2CC[C@H](NC(=O)N(C)C)CC2)C1 [I-D6, 3-(trans-4-(2-(9-methoxy-3,4-dihydrobenzo[4,5]imidazo[1,2-a]pyrazin-2(1H)-yl)ethyl)cyclohexyl)-1,1-dimethylurea] |  |  |  | 16.8 | 12.9 | 
17 | 67 | 79 | 41 | 180 | 95.5 | COc1cccc2c1nc1n2CCN(CC2(O)CCCCC2)C1 [I-D7, 1-((9-methoxy-3,4-dihydrobenzo[4,5]imidazo[1,2-a]pyrazin-2(1H)-yl)methyl)cyclohexan-1-ol] |  |  |  |  |  | 

Row | SMILES | Emax (dopamine D2 receptors [1]) [%] | EC50 (dopamine D2 receptors [1]; [4]) [nM] | Emax (dopamine D2 receptors [2]) [%] | EC50 (dopamine D2 receptors [2]; [5]) [nM] | EC50 (dopamine D2 receptors [1]; [6]) [nM] | Gαi1 BRET pEC50 ± SEM (dopamine D2 receptors [1]) | β-arrestin2 BRET pEC50 ± SEM (dopamine D2 receptors [2]) | Affinity pKi ± SEM (dopamine D2 receptors [3]) | Ki (dopamine D2 receptors [3]; read-out: Affinity Ki) [nM] | Ki (dopamine D2 receptors [3]; [7]) [nM] | EC50 (dopamine D2 receptors [2]; read-out: β-arrestin2 BRET pEC50 ± SEM (converted)) [nM]
18 | COc1cccc2c3c(oc12)CN(CCCCOc1ccc2ccc(=O)n(C)c2c1)CC3 [I-A4, 7-(4-(8-methoxy-3,4-dihydrobenzofuro[2,3-c]pyridin-2(1H)-yl)butoxy)-1-methylquinolin-2(1H)-one] | 55 | 709 | 65 | 81.2 |  | (6.16 ± 0.06) | (7.17 ± 0.18) |  |  |  | 
19 | CCOc1cccc2c1cc1n2CCN(CCCCOc2ccc3ccc(=O)[nH]c3c2)C1 [I-C10, 7-(4-(9-ethoxy-3,4-dihydropyrazino[1,2-a]indol-2(1H)-yl)butoxy)quinolin-2(1H)-one] | 20 | 118 | 49 | 828 | 120 |  |  |  |  |  | 
20 | COc1cccc2c1nc1n2CCN(CCCCOc2ccc3ccc(=O)[nH]c3c2)C1 [I-D1, 7-(4-(9-methoxy-3,4-dihydrobenzo[4,5]imidazo[1,2-a]pyrazin-2(1H)-yl)butoxy)quinolin-2(1H)-one] | 77 | 267 | 100 | 56 | 263 |  |  |  |  |  | 
21 | COc1cccc2c1nc1n2CCN(CCCCOc2ccc3c(c2)NC(=O)CC3)C1 [I-D2, 7-(4-(9-methoxy-3,4-dihydrobenzo[4,5]imidazo[1,2-a]pyrazin-2(1H)-yl)butoxy)-3,4-dihydroquinolin-2(1H)-one] | 71 | 355 | 106 | 70.1 | 324 |  |  |  |  |  | 69.2
